Source: PubChem BioAssay AID1259407 (Chemical Carcinogenesis Research Information System (CCRIS), 2018)
Activity calls are given as the source filed them. No rule for the calls is given here.

Test system: CCRIS mutagenicity, Ames/micronucleus/aberration tests
Assay: CCRIS mutagenicity studies
[1] = Test System: AMES SALMONELLA TYPHIMURIUM, Strain/Indicator: TA98, Metabolic Activation: NONE, Method: STANDARD PLATE
[2] = Test System: AMES SALMONELLA TYPHIMURIUM, Strain/Indicator: TA100, Metabolic Activation: NONE, Method: PREINCUBATION
[3] = Test System: AMES SALMONELLA TYPHIMURIUM, Strain/Indicator: TA100, Metabolic Activation: NONE, Method: STANDARD PLATE
[4] = Test System: AMES SALMONELLA TYPHIMURIUM, Strain/Indicator: TA1535, Metabolic Activation: NONE, Method: STANDARD PLATE
[5] = Test System: AMES SALMONELLA TYPHIMURIUM, Strain/Indicator: TA98, Metabolic Activation: NONE, Method: PREINCUBATION
[6] = Test System: AMES SALMONELLA TYPHIMURIUM, Strain/Indicator: TA100, Metabolic Activation: RAT, LIVER, S-9, AROCLOR 1254, Method: STANDARD PLATE
[7] = Test System: AMES SALMONELLA TYPHIMURIUM, Strain/Indicator: TA98, Metabolic Activation: RAT, LIVER, S-9, AROCLOR 1254, Method: STANDARD PLATE
[8] = Test System: AMES SALMONELLA TYPHIMURIUM, Strain/Indicator: TA1537, Metabolic Activation: NONE, Method: STANDARD PLATE
[9] = Test System: E. COLI, Strain/Indicator: WP2 (HCR), Metabolic Activation: NONE, Method: STANDARD PLATE
[10] = Test System: MOUSE LYMPHOMA, Strain/Indicator: L5178Y (TK+/TK-), Metabolic Activation: NONE, Method: SUSPENSION/PLATE

C1=CC2OC2C=C1 (stereo unspecified)
mutagenic call [1]: inactive; negative | mutagenic call (Test System: AMES SALMONELLA TYPHIMURIUM, Strain/Indicator: TA98, Metabolic Activation: RAT, LIVER, S-9, PHENOBARBITAL, Method: STANDARD PLATE): inactive; negative | mutagenic call [2]: inactive; negative | mutagenic call [3]: inactive; negative | mutagenic call (Test System: AMES SALMONELLA TYPHIMURIUM, Strain/Indicator: TA100, Metabolic Activation: RAT, LIVER, S-9, PHENOBARBITAL, Method: PREINCUBATION): active; positive | mutagenic call (Test System: AMES SALMONELLA TYPHIMURIUM, Strain/Indicator: TA100, Metabolic Activation: RAT, LIVER, S-9, PHENOBARBITAL, Method: STANDARD PLATE): active; positive | mutagenic call [4]: inactive; negative | mutagenic call (Test System: AMES SALMONELLA TYPHIMURIUM, Strain/Indicator: TM677/8-AZAGUANINE, Metabolic Activation: NONE, Method: PREINCUBATION): inactive; negative | mutagenic call (Test System: AMES SALMONELLA TYPHIMURIUM, Strain/Indicator: TM677/8-AZAGUANINE, Metabolic Activation: NONE, Method: STANDARD PLATE): inactive; negative | mutagenic call (Test System: AMES SALMONELLA TYPHIMURIUM, Strain/Indicator: TM677, Metabolic Activation: RAT, LIVER, S-9, PHENOBARBITAL, Method: PREINCUBATION): active; positive

Cc1ccc2c(C)c3ccc4ccccc4c3nc2c1
mutagenic call (Test System: AMES SALMONELLA TYPHIMURIUM, Strain/Indicator: TA97A, Metabolic Activation: NONE, Method: PREINCUBATION): active; positive | mutagenic call [5]: active; positive | mutagenic call [2]: active; positive | mutagenic call [6]: active; positive | mutagenic call (Test System: AMES SALMONELLA TYPHIMURIUM, Strain/Indicator: TA102, Metabolic Activation: NONE, Method: PREINCUBATION): active; positive

CC[C@@]1(O)C[C@H](O[C@H]2C[C@H](N(C)C)[C@H](O[C@H]3C[C@H](O)[C@H](O[C@H]4CCC(=O)[C@H](C)O4)[C@H](C)O3)[C@H](C)O2)c2c(cc3c(c2O)C(=O)c2c(O)cccc2C3=O)[C@H]1C(=O)OC
mutagenic call (Test System: AMES SALMONELLA TYPHIMURIUM, Strain/Indicator: TA97, Metabolic Activation: NONE, Method: STANDARD PLATE): inactive; negative | mutagenic call [1]: inactive; negative | mutagenic call [7]: inactive; negative | mutagenic call [3]: inactive; negative | mutagenic call (Test System: AMES SALMONELLA TYPHIMURIUM, Strain/Indicator: TA104, Metabolic Activation: NONE, Method: STANDARD PLATE): active; positive | mutagenic call [8]: inactive; negative | mutagenic call (Test System: AMES SALMONELLA TYPHIMURIUM, Strain/Indicator: TA1538, Metabolic Activation: NONE, Method: STANDARD PLATE): inactive; negative | mutagenic call (Test System: AMES SALMONELLA TYPHIMURIUM, Strain/Indicator: TA2637, Metabolic Activation: NONE, Method: STANDARD PLATE): active; positive | mutagenic call [9]: inactive; negative

CCN(CC)c1ccc2nc3ccc(=[N+](CC)CC)cc-3oc2c1
mutagenic call (Test System: AMES SALMONELLA TYPHIMURIUM, Strain/Indicator: TA98, Metabolic Activation: HAMSTER, LIVER, S-9, AROCLOR 1254 (10%), Method: STANDARD PLATE): inactive; negative | mutagenic call [1]: active; positive | mutagenic call (Test System: AMES SALMONELLA TYPHIMURIUM, Strain/Indicator: TA98, Metabolic Activation: RAT, LIVER, S-9, AROCLOR 1254 (10%), Method: STANDARD PLATE): inactive; negative | mutagenic call (Test System: AMES SALMONELLA TYPHIMURIUM, Strain/Indicator: TA100, Metabolic Activation: HAMSTER, LIVER, S-9, AROCLOR 1254 (10%), Method: STANDARD PLATE): inactive; negative | mutagenic call [3]: inactive; negative | mutagenic call (Test System: AMES SALMONELLA TYPHIMURIUM, Strain/Indicator: TA100, Metabolic Activation: RAT, LIVER, S-9, AROCLOR 1254 (10%), Method: STANDARD PLATE): inactive; negative | mutagenic call (Test System: Ames Salmonella typhimurium, Strain/Indicator: TA98, Metabolic Activation: None, Method: Preincubation): inactive; negative | mutagenic call (Test System: Ames Salmonella typhimurium, Strain/Indicator: TA98, Metabolic Activation: Rat, Liver, S-9, Aroclor 1254, Method: Preincubation): inactive; negative | mutagenic call (Test System: Ames Salmonella typhimurium, Strain/Indicator: TA100, Metabolic Activation: None, Method: Preincubation): inactive; negative | mutagenic call (Test System: Ames Salmonella typhimurium, Strain/Indicator: TA100, Metabolic Activation: Rat, Liver, S-9, Aroclor 1254, Method: Preincubation): inactive; negative | mutagenic call (Test System: Ames Salmonella typhimurium, Strain/Indicator: TA102, Metabolic Activation: None, Method: Preincubation): inactive; negative | mutagenic call (Test System: Ames Salmonella typhimurium, Strain/Indicator: TA102, Metabolic Activation: Rat, Liver, S-9, Aroclor 1254, Method: Preincubation): inactive; negative | mutagenic call (Test System: Ames Salmonella typhimurium, Strain/Indicator: TA1535, Metabolic Activation: None, Method: Preincubation): inactive; negative | mutagenic call (Test System: Ames Salmonella typhimurium, Strain/Indicator: TA1535, Metabolic Activation: Rat, Liver, S-9, Aroclor 1254, Method: Preincubation): inactive; negative | mutagenic call [10]: active; positive. reevaluation of results: positive | mutagenic call (Test System: MOUSE LYMPHOMA, Strain/Indicator: L5178Y (TK+/TK-), Metabolic Activation: RAT, LIVER, S-9, AROCLOR 1254, Method: SUSPENSION/PLATE): active; positive. reevaluation of results: positive

CN[C@H]1CCc2cc(OC)c(OC)c(OC)c2-c2ccc(OC)c(=O)cc21
mutagenic call [1]: inactive; negative | mutagenic call [3]: inactive; negative | mutagenic call [9]: inactive; negative

Cc1cnc2cc(CO)c3c(nc(N)n3C)c2n1
mutagenic call (Test System: AMES SALMONELLA TYPHIMURIUM, Strain/Indicator: TA98, Metabolic Activation: S-9): active; positive | mutagenic call (Test System: AMES SALMONELLA TYPHIMURIUM, Strain/Indicator: TA98, Metabolic Activation: S-9, Method: PREINCUBATION): active; positive | mutagenic call (Test System: AMES SALMONELLA TYPHIMURIUM, Strain/Indicator: TA100, Metabolic Activation: S-9, Method: PREINCUBATION): active; positive | mutagenic call (Test System: AMES SALMONELLA TYPHIMURIUM, Strain/Indicator: YG1024, Metabolic Activation: S-9): active; positive | mutagenic call (Test System: AMES SALMONELLA TYPHIMURIUM, Strain/Indicator: YG1024, Metabolic Activation: S-9, Method: PREINCUBATION): active; positive

[Cl][Sb]([Cl])([Cl])([Cl])[Cl]
mutagenic call [5]: inactive; negative | mutagenic call (Test System: AMES SALMONELLA TYPHIMURIUM, Strain/Indicator: TA98, Metabolic Activation: RAT, LIVER, S-9 (10%), Method: PREINCUBATION): inactive; negative | mutagenic call [2]: inactive; negative | mutagenic call (Test System: AMES SALMONELLA TYPHIMURIUM, Strain/Indicator: TA100, Metabolic Activation: RAT, LIVER, S-9 (10%), Method: PREINCUBATION): inactive; negative

Cc1cc(-c2ccc(N/N=C3\C=Cc4c(S(=O)(=O)O)cc(S(=O)(=O)O)c(N)c4C3=O)c(C)c2)ccc1N/N=C1\C=Cc2c(S(=O)(=O)O)cc(S(=O)(=O)O)c(N)c2C1=O
mutagenic call (Test System: AMES SALMONELLA TYPHIMURIUM, Strain/Indicator: TA98, Metabolic Activation: HAMSTER, LIVER, S-9, Method: PREINCUBATION (PRIVAL METHOD)): active; positive | mutagenic call (Test System: AMES SALMONELLA TYPHIMURIUM, Strain/Indicator: TA100, Metabolic Activation: HAMSTER, LIVER, S-9, Method: PREINCUBATION (PRIVAL METHOD)): active; positive | mutagenic call [10]: active; positive. reevaluation of results: equivocal | mutagenic call (Test System: Mouse lymphoma, Strain/Indicator: L5178Y (tk+/tk-), Metabolic Activation: Rat, Liver, S-9, Aroclor 1254, Method: Suspension/plate): inactive; negative

CCOC(=O)C1C(C=C(C)C)C1(C)C (stereo unspecified)
mutagenic call [1]: inactive; negative | mutagenic call [7]: inactive; negative | mutagenic call [3]: inactive; negative | mutagenic call [6]: inactive; negative | mutagenic call [4]: inactive; negative | mutagenic call (Test System: AMES SALMONELLA TYPHIMURIUM, Strain/Indicator: TA1535, Metabolic Activation: RAT, LIVER, S-9, AROCLOR 1254, Method: STANDARD PLATE): inactive; negative | mutagenic call [8]: inactive; negative | mutagenic call (Test System: AMES SALMONELLA TYPHIMURIUM, Strain/Indicator: TA1537, Metabolic Activation: RAT, LIVER, S-9, AROCLOR 1254, Method: STANDARD PLATE): inactive; negative | mutagenic call (Test System: E. COLI, Strain/Indicator: WP2, Metabolic Activation: NONE, Method: STANDARD PLATE): inactive; negative | mutagenic call (Test System: E. COLI, Strain/Indicator: WP2, Metabolic Activation: RAT, LIVER, S-9, AROCLOR 1254, Method: STANDARD PLATE): inactive; negative
